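How tested: cells in 96-well plates exposed to compound for 48 hours at five concentrations. Abbreviation: GI50, concentration required for 50% inhibition of growth.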 Active and inactive are the calls of the source. Rule as the data show it: active = GI50 up to about 1.1 µM and inactive = higher.
Legend:
Test in all cases: NCI anticancer screen, dose series, 48 h
SK-OV-3 = system: SK-OV-3
PC-3 = system: PC-3
SK-MEL-5 = system: SK-MEL-5
786-0 = system: 786-0
Malme-3M = system: Malme-3M
KM12 = system: KM12
EKVX = system: EKVX
CAKI-1 = system: CAKI-1
UO-31 = system: UO-31
OVCAR-3 = system: OVCAR-3
MDA-N = system: MDA-N
HOP-62 = system: HOP-62
IGROV-1 = system: IGROV-1
UACC-257 = system: UACC-257
ACHN = system: ACHN
SF-539 = system: SF-539
LOX IMVI = system: LOX IMVI
DU-145 = system: DU-145
MOLT-4 = system: MOLT-4
HL-60 = system: HL-60

Row | Structure (SMILES) | GI50 (SK-OV-3) | GI50 (PC-3) | GI50 (SK-MEL-5) | GI50 (786-0) | GI50 (Malme-3M) | GI50 (KM12) | GI50 (EKVX) | GI50 (CAKI-1) | GI50 (UO-31) | GI50 (OVCAR-3) | GI50 (MDA-N) | GI50 (HOP-62) | GI50 (IGROV-1) | GI50 (UACC-257) | GI50 (ACHN) | GI50 (SF-539) | GI50 (LOX IMVI) | GI50 (DU-145) | GI50 (MOLT-4) | GI50 (HL-60)
1 | CC(C)=CC(C)C(C(O)CCC1(c2ccoc2)OCCO1)S(=O)(=O)c1ccccc1 (stereo not given) | > 100 µM (inactive) | > 100 µM (inactive) | > 100 µM (inactive) | > 100 µM (inactive) | > 100 µM (inactive) | > 100 µM (inactive) | > 100 µM (inactive) | > 100 µM (inactive) | > 100 µM (inactive) | > 100 µM (inactive) | > 100 µM (inactive) | > 100 µM (inactive) | 54.5 µM (inactive) | > 100 µM (inactive) | > 100 µM (inactive) | > 100 µM (inactive) | > 100 µM (inactive) | – | – | –
2 | CN1CCC2(CC1)/C(=N/C1CCCCC1)NC(=O)N2c1ccccc1 | > 100 µM (inactive) | – | > 100 µM (inactive) | > 100 µM (inactive) | > 100 µM (inactive) | > 100 µM (inactive) | > 100 µM (inactive) | – | > 100 µM (inactive) | – | – | > 100 µM (inactive) | > 100 µM (inactive) | > 100 µM (inactive) | > 100 µM (inactive) | – | – | > 100 µM (inactive) | > 100 µM (inactive) | > 100 µM (inactive)
3 | O=C1[C@@H]2[C@@H](c3ccccc3)[C@]2(Cl)C(=O)[C@H]2[C@H](c3ccccc3)[C@@]12Cl | > 100 µM (inactive) | > 100 µM (inactive) | > 100 µM (inactive) | > 100 µM (inactive) | > 100 µM (inactive) | > 100 µM (inactive) | > 100 µM (inactive) | > 100 µM (inactive) | 57 µM (inactive) | > 100 µM (inactive) | – | > 100 µM (inactive) | > 100 µM (inactive) | > 100 µM (inactive) | > 100 µM (inactive) | > 100 µM (inactive) | > 100 µM (inactive) | > 100 µM (inactive) | > 100 µM (inactive) | > 100 µM (inactive)
4 | CCCCCCCCCCCC[N+]12CC[N+](CCN)(CC1)CC2 | > 100 µM (inactive) | – | > 100 µM (inactive) | > 100 µM (inactive) | > 100 µM (inactive) | 23.7 µM (inactive) | > 100 µM (inactive) | 19.2 µM (inactive) | > 100 µM (inactive) | > 100 µM (inactive) | – | 68.5 µM (inactive) | 10.8 µM (inactive) | > 100 µM (inactive) | > 100 µM (inactive) | 89.7 µM (inactive) | 37.8 µM (inactive) | – | > 100 µM (inactive) | 27.7 µM (inactive)
5 | O=C(O)CSc1nnc(/C=C/c2ccccc2)[nH]1 | > 100 µM (inactive) | – | > 100 µM (inactive) | > 100 µM (inactive) | > 100 µM (inactive) | > 100 µM (inactive) | > 100 µM (inactive) | > 100 µM (inactive) | > 100 µM (inactive) | > 100 µM (inactive) | – | > 100 µM (inactive) | > 100 µM (inactive) | > 100 µM (inactive) | > 100 µM (inactive) | > 100 µM (inactive) | > 61.2 µM (inactive) | – | > 100 µM (inactive) | > 100 µM (inactive)
6 | CCOc1ccc(/C=C/c2cc(OC)c(OC)c(OC)c2)cc1 | 1.4 µM (inactive) | – | 0.556 µM (active) | 3.05 µM (inactive) | 0.893 µM (active) | 0.411 µM (active) | > 100 µM (inactive) | 0.564 µM (active) | 17.1 µM (inactive) | 0.596 µM (active) | – | 0.392 µM (active) | 2.19 µM (inactive) | 0.658 µM (active) | 1.56 µM (inactive) | 0.456 µM (active) | 1.59 µM (inactive) | – | 1.37 µM (inactive) | 0.509 µM (active)
7 | O=C1C2c3[nH]c4ccccc4c3C3CCCCCC3C2C(=O)N1c1ccccc1 (stereo not given) | 15.9 µM (inactive) | – | > 100 µM (inactive) | 44.9 µM (inactive) | 9.31 µM (inactive) | > 100 µM (inactive) | > 68.1 µM (inactive) | 17.4 µM (inactive) | 38.2 µM (inactive) | 16.3 µM (inactive) | – | 16.9 µM (inactive) | 21.8 µM (inactive) | 30.7 µM (inactive) | 39.6 µM (inactive) | 14.4 µM (inactive) | 14.9 µM (inactive) | – | 16 µM (inactive) | > 45.6 µM (inactive)
8 | CN(C)CCNC(=O)c1ccc(C(=O)NCCN(C)C)c2nc3ccccc3cc12 | 0.916 µM (active) | – | 1.49 µM (inactive) | 0.692 µM (active) | 1.38 µM (inactive) | 0.792 µM (active) | 1.81 µM (inactive) | 1.48 µM (inactive) | 4.81 µM (inactive) | 1.77 µM (inactive) | – | 0.979 µM (active) | 1.62 µM (inactive) | 1.62 µM (inactive) | 0.637 µM (active) | 0.378 µM (active) | 0.519 µM (active) | – | 0.226 µM (active) | 0.826 µM (active)
9 | N#CCCN(CCC#N)c1ccc(/C=C2\N=C(CN3C(=O)c4ccccc4C3=O)OC2=O)cc1 | > 100 µM (inactive) | – | > 100 µM (inactive) | > 100 µM (inactive) | > 100 µM (inactive) | > 100 µM (inactive) | > 100 µM (inactive) | > 100 µM (inactive) | > 100 µM (inactive) | > 100 µM (inactive) | – | > 100 µM (inactive) | > 100 µM (inactive) | > 100 µM (inactive) | > 100 µM (inactive) | > 100 µM (inactive) | > 100 µM (inactive) | – | > 100 µM (inactive) | > 100 µM (inactive)
10 | C=C(C)CC1(O[Si](C)(C)C)C(=O)C(OCC)=C1OCC (stereo not given) | > 100 µM (inactive) | > 100 µM (inactive) | > 100 µM (inactive) | > 100 µM (inactive) | > 100 µM (inactive) | > 100 µM (inactive) | > 100 µM (inactive) | > 100 µM (inactive) | > 100 µM (inactive) | > 100 µM (inactive) | – | > 100 µM (inactive) | > 100 µM (inactive) | > 100 µM (inactive) | > 100 µM (inactive) | > 100 µM (inactive) | > 100 µM (inactive) | > 100 µM (inactive) | > 100 µM (inactive) | > 100 µM (inactive)
11 | C1=CC2C(C3CN(c4ccccc4)N=C13)C1C3C4C=CC21C=CC43 (stereo not given) | > 100 µM (inactive) | > 100 µM (inactive) | > 100 µM (inactive) | > 100 µM (inactive) | 57.5 µM (inactive) | > 100 µM (inactive) | > 100 µM (inactive) | > 100 µM (inactive) | > 100 µM (inactive) | > 100 µM (inactive) | – | > 100 µM (inactive) | > 100 µM (inactive) | > 100 µM (inactive) | > 100 µM (inactive) | > 100 µM (inactive) | > 100 µM (inactive) | – | > 100 µM (inactive) | > 100 µM (inactive)
12 | Oc1ccc2ccccc2c1OCc1nnc(CCCCCCCCc2nnc(COc3c(O)ccc4ccccc34)n2Nc2ccccc2)n1Nc1ccccc1 | 16.5 µM (inactive) | 2.68 µM (inactive) | 0.536 µM (active) | 21.5 µM (inactive) | 11.1 µM (inactive) | 12.5 µM (inactive) | 15.4 µM (inactive) | 12.3 µM (inactive) | 7.46 µM (inactive) | 12.9 µM (inactive) | – | 1.06 µM (active) | 7.05 µM (inactive) | 6.38 µM (inactive) | 1.23 µM (inactive) | 6.85 µM (inactive) | – | 19.7 µM (inactive) | – | –

Source: ChEMBL document CHEMBL1201862, “PubChem BioAssay data set” (2004)
